The values below come from patent publication US10130590B2, “Methods of treating cancer with atovaquone-related compounds” (DANA-FARBER CANCER INSTITUTE, INC., priority 2013, dated 2018).

The subject of data set [1] is HEL cells. Description: PI cell cycle analysis, HEL. It is filed as cell-based. As to conditions: 25 μM, 24 hours. As to the method:
Annexin V/PI staining was performed using Annexin V:FITC Apoptosis Detection Kit I (BD Biosciences). Staining for cell cycle analysis was performed as previously described (267). Staining for cell-surface receptors was performed in 50 μl PBS+2% FBS with 2 μl antibody to IL6R (BioLegend #352803) or 5 μl antibody to gp130 (BD Biosciences #555757) for 20 minutes on ice in the dark. Cells were washed twice, then resuspended in 300 μl of the same buffer. Samples were analyzed on a BD FACSCanto II machine. Transfection and siRNA Cells were reverse-transfected using Lipofectamine RNAiMAX (Invitrogen); the culture medium was changed 24 hours later. Control siRNA (D-001210-02) and REDD1 siRNA (M-010855-01) were from Thermo Scientific Dharmacon. Additionally, it was hypothesized atovaquone inhibits proliferation by disrupting cell cycle progression. […] In summary, atovaquone inhibits constitutive STAT3 activation and target gene expression in cancer cells, and reduces their survival and proliferation.

The test system of data set [2] is INA-6 cells. Put plainly: Cell viability (Cell Titer Glo), INA-6. It is filed as cell-based. Particulars: 72 hours. The procedure: Western blotting was performed as previously described (Battle T E, Arbiser J, & Frank D A (2005) The natural product honokiol induces caspase dependent apoptosis in B-cell chronic lymphocytic leukemia (B-CLL) cells. Blood 106(2):690-697). Antibodies to phospho-MAPK (9101), total MAPK (9102), phospho-Y705 STAT3 (9131), phospho-S6 (2215), total S6 (2217), phospho-4E-BP1 (9451), total 4E-BP1 (9644), total RSK (9355), phospho-S6K (9234, 85 used at 1:5000), total S6K (2708), phospho-eIF2α (9721, used at 1:1000), total eIF2α (5324), ATF4 (11815, used at 1:1000), PDGFRβ (3169), IGF1Rβ (9750), EGFR (2232), and HER2 (2242) were from Cell Signaling Technology. Phospho-RSK antibody was from R&D (AF889). Antibodies to total STAT3 (sc-482) and gp130 (sc-656, used at 1:1000) were from Santa Cruz Biotechnology. Phospho-S727 STAT3 antibody was described previously (229). REDD1 antibody was from Proteintech (10638-1-AP, used at 1:1000). Antibody recognizing full-length and cleaved ATF6 was from Abcam (ab122897, used at 1:1000). Antibodies to tubulin (T5168) and beta actin (A5316) were from Sigma. All antibodies were used at 1:10000 dilution for western blot unless otherwise noted. […] Cell viability was measured as ATP-dependent luminescence by Cell Titer Glo (Promega). […]

For data set [3] the following is noted: clinical use; cited from earlier work.
The test system of data set [4] is JAK family members. Put plainly: In vitro kinase assays (Invitrogen SelectScreen). It is filed as biochemical. Particulars: atovaquone 15 μM. As to the method: FIG. 15 contains a bar graph quantifying kinase activity (expressed as percent of vehicle) for the indicated kinases (JAK1, JAK2, JAK3, TYK2, SRC) determined using in vitro kinase assays (Invitrogen SelectScreen) and following treatment with atovaquone (AQ) (15 μM) or JAK inhibitor 1 (0.5 μM).
To understand how atovaquone inhibits STAT3 phosphorylation, the possibility that atovaquone decreases the kinase activity of JAKs, which are responsible for STAT3 activation in the systems previously tested was considered. To assess kinase activity, the extent of kinase auto-phosphorylation, which provides a cellular readout of kinase activity, was first analyzed. […] In particular, U266 cells were treated with atovaquone (15 μM) or JAK inhibitor 1(1 μM) for 1 hour, followed by lysis and immunoprecipitation to TYK2. The blot was probed with a pan-phospho-tyrosine antibody (FIG. 14A). Due to technical limitations, tyrosine phosphorylation of other JAK family members was not detected in U266 cells. Next, HEL cells were treated with atovaquone (20 μM) or JAK inhibitor 1 (1 μM) for 6 hours, followed by lysis and immunoprecipitation to JAK2, which was selected because these cells harbor mutant JAK2-V617F. The blot was probed with a pan-phospho-tyrosine antibody, as well as antibodies specific to phospho-Tyr570 and phospho-Tyr1007/1008 (FIG. 14B). […]

“Also recorded” adds a separate entry of the source.

In general, IC50 refers to the concentration that gives 50% inhibition. High values mean a need for much substance, low ones inhibition by little substance. Regarding `O=C1C(O)=C([C@H]2CC[C@H](c3ccc(Cl)cc3)CC2)C(=O)c2ccccc21` [atovaquone, trans-2-[4-(4-chlorophenyl)cyclohexyl]-3-hydroxy-1,4-naphthalenedione], in data set [1], the “population of cells in G2/M” value was “decreased the population of cells in G2/M” and the “proportion of cells with lower DNA content” value is listed as “increased the proportion of cells with lower DNA content”. Also, the “viability of INA-6 cells at higher doses” value in data set [2] was “complete loss of viability”. Also, in data set [2] (INA-6), 11.9 µM corresponded to half-maximal inhibition (IC50). The “side effects / tolerability” value in data set [3] is reported as “side effects are minimal; also recorded: extremely well-tolerated in humans”. Moreover, in data set [4], the “in vitro kinase activity” value is recorded as “no inhibition”.
